Laboratory results: PubChem BioAssay (NCI)
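Five compound concentrations were applied to cells in 96-well plates for 48 hours; endpoints were derived by simple linear interpolation of the resulting dose-response curve. TGI marks complete inhibition of growth.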

How the values were obtained:
Test in all cases: growth of human tumour cells (NCI), 48 h
NCI/ADR-RES ovarian = test system: NCI/ADR-RES ovarian
HCC-2998 colon = test system: HCC-2998 colon
A498 renal = test system: A498 renal
RPMI-8226 leukemia = test system: RPMI-8226 leukemia
786-0 renal = test system: 786-0 renal
NCI-H460 lung = test system: NCI-H460 lung
M19-MEL melanoma = test system: M19-MEL melanoma
OVCAR-4 ovarian = test system: OVCAR-4 ovarian
T-47D breast = test system: T-47D breast
U251 CNS = test system: U251 CNS
HL-60(TB) leukemia = test system: HL-60(TB) leukemia
SN12C renal = test system: SN12C renal
KM12 colon = test system: KM12 colon
DMS 273 small cell lung = test system: DMS 273 small cell lung
RXF-631 renal = test system: RXF-631 renal
CCRF-CEM leukemia = test system: CCRF-CEM leukemia
A549 NSCLC = test system: A549 NSCLC
COLO 205 colon = test system: COLO 205 colon
HOP-18 NSCLC = test system: HOP-18 NSCLC
SW-620 colon = test system: SW-620 colon
MALME-3M melanoma = test system: MALME-3M melanoma
DMS 114 small cell lung = test system: DMS 114 small cell lung
LOX IMVI melanoma = test system: LOX IMVI melanoma
SK-MEL-5 melanoma = test system: SK-MEL-5 melanoma
KM20L2 colon = test system: KM20L2 colon
MCF7 breast = test system: MCF7 breast
OVCAR-3 ovarian = test system: OVCAR-3 ovarian
NCI-H23 lung = test system: NCI-H23 lung
XF 498 CNS = test system: XF 498 CNS
HOP-62 NSCLC = test system: HOP-62 NSCLC
SF-295 CNS = test system: SF-295 CNS
SF-268 CNS = test system: SF-268 CNS
NCI-H226 lung = test system: NCI-H226 lung
SF-539 CNS = test system: SF-539 CNS
SK-MEL-2 melanoma = test system: SK-MEL-2 melanoma
MDA-N = test system: MDA-N
SK-MEL-28 melanoma = test system: SK-MEL-28 melanoma
HCT-116 colon = test system: HCT-116 colon
UACC-257 melanoma = test system: UACC-257 melanoma
TK-10 renal = test system: TK-10 renal
LXFL 529 NSCLC = test system: LXFL 529 NSCLC
SR leukemia = test system: SR leukemia
NCI-H522 lung = test system: NCI-H522 lung
PC-3 prostate = test system: PC-3 prostate
HOP-92 NSCLC = test system: HOP-92 NSCLC
EKVX NSCLC = test system: EKVX NSCLC
UACC-62 melanoma = test system: UACC-62 melanoma
UO-31 renal = test system: UO-31 renal
SK-OV-3 ovarian = test system: SK-OV-3 ovarian
DU-145 prostate = test system: DU-145 prostate
CAKI-1 renal = test system: CAKI-1 renal
IGROV1 ovarian = test system: IGROV1 ovarian
MOLT-4 leukemia = test system: MOLT-4 leukemia
MDA-MB-231 breast = test system: MDA-MB-231 breast
SNB-19 CNS = test system: SNB-19 CNS
ACHN renal = test system: ACHN renal
OVCAR-5 ovarian = test system: OVCAR-5 ovarian
RXF 393 renal = test system: RXF 393 renal
HS 578T breast = test system: HS 578T breast
MDA-MB-435 = test system: MDA-MB-435
SNB-75 CNS = test system: SNB-75 CNS
K-562 leukemia = test system: K-562 leukemia
OVCAR-8 ovarian = test system: OVCAR-8 ovarian
BT-549 breast = test system: BT-549 breast
HCT-15 colon = test system: HCT-15 colon
HT29 colon = test system: HT29 colon
M14 melanoma = test system: M14 melanoma
DLD-1 colon = test system: DLD-1 colon
SNB-78 CNS = test system: SNB-78 CNS

SMILES: COc1cc(Nc2nc3c(N)cc(C(F)(F)F)cc3nc2-c2ccccc2)cc(OC)c1OC
- TGI (NCI/ADR-RES ovarian): > 100 µM
- TGI (HCC-2998 colon): > 100 µM
- TGI (A498 renal): 7.36 µM
- TGI (RPMI-8226 leukemia): > 100 µM
- TGI (786-0 renal): 74.4 µM
- TGI (NCI-H460 lung): > 100 µM
- TGI (M19-MEL melanoma): > 100 µM
- TGI (OVCAR-4 ovarian): 58.8 µM
- TGI (T-47D breast): > 83 µM
- TGI (U251 CNS): > 89.2 µM
- TGI (HL-60(TB) leukemia): > 100 µM
- TGI (SN12C renal): > 100 µM
- TGI (KM12 colon): > 100 µM
- TGI (DMS 273 small cell lung): > 100 µM
- TGI (RXF-631 renal): > 85.2 µM
- TGI (CCRF-CEM leukemia): > 100 µM
- TGI (A549 NSCLC): > 100 µM
- TGI (COLO 205 colon): > 100 µM
- TGI (HOP-18 NSCLC): > 81 µM
- TGI (SW-620 colon): > 100 µM
- TGI (MALME-3M melanoma): 75.9 µM
- TGI (DMS 114 small cell lung): > 100 µM
- TGI (LOX IMVI melanoma): > 100 µM
- TGI (SK-MEL-5 melanoma): 83 µM
- TGI (KM20L2 colon): 99.9 µM
- TGI (MCF7 breast): > 100 µM
- TGI (OVCAR-3 ovarian): > 100 µM
- TGI (NCI-H23 lung): > 100 µM
- TGI (XF 498 CNS): 47.9 µM
- TGI (HOP-62 NSCLC): > 86.1 µM
- TGI (SF-295 CNS): 53.3 µM
- TGI (SF-268 CNS): > 100 µM
- TGI (NCI-H226 lung): > 88.5 µM
- TGI (SF-539 CNS): > 74 µM
- TGI (SK-MEL-2 melanoma): > 100 µM
- TGI (MDA-N): > 100 µM
- TGI (SK-MEL-28 melanoma): > 100 µM
- TGI (HCT-116 colon): > 100 µM
- TGI (UACC-257 melanoma): > 100 µM
- TGI (TK-10 renal): > 95.4 µM
- TGI (LXFL 529 NSCLC): > 100 µM
- TGI (SR leukemia): > 100 µM
- TGI (NCI-H522 lung): > 92 µM
- TGI (PC-3 prostate): > 89.4 µM
- TGI (HOP-92 NSCLC): 16.7 µM
- TGI (EKVX NSCLC): > 100 µM
- TGI (UACC-62 melanoma): > 92.3 µM
- TGI (UO-31 renal): > 100 µM
- TGI (SK-OV-3 ovarian): > 92.2 µM
- TGI (DU-145 prostate): > 100 µM
- TGI (CAKI-1 renal): > 100 µM
- TGI (IGROV1 ovarian): > 100 µM
- TGI (MOLT-4 leukemia): > 100 µM
- TGI (MDA-MB-231 breast): > 95.5 µM
- TGI (SNB-19 CNS): > 91.5 µM
- TGI (ACHN renal): > 100 µM
- TGI (OVCAR-5 ovarian): > 100 µM
- TGI (RXF 393 renal): 36.2 µM
- TGI (HS 578T breast): > 83.6 µM
- TGI (MDA-MB-435): > 100 µM
- TGI (SNB-75 CNS): 53.8 µM
- TGI (K-562 leukemia): > 100 µM
- TGI (OVCAR-8 ovarian): > 100 µM
- TGI (BT-549 breast): > 83.5 µM
- TGI (HCT-15 colon): > 100 µM
- TGI (HT29 colon): > 100 µM
- TGI (M14 melanoma): > 100 µM

SMILES: N#CC1=C(Cl)NC(Cl)=C(C#N)C1c1ccc(Cl)cc1
- TGI (DLD-1 colon): 32 µM
- TGI (HCC-2998 colon): 33.2 µM
- TGI (A498 renal): 81.3 µM
- TGI (RPMI-8226 leukemia): 37.5 µM
- TGI (786-0 renal): 29.2 µM
- TGI (NCI-H460 lung): 31.5 µM
- TGI (U251 CNS): 29.8 µM
- TGI (HL-60(TB) leukemia): 45.4 µM
- TGI (SN12C renal): 30.9 µM
- TGI (KM12 colon): 33 µM
- TGI (DMS 273 small cell lung): 31 µM
- TGI (RXF-631 renal): 29.5 µM
- TGI (CCRF-CEM leukemia): 65.8 µM
- TGI (A549 NSCLC): 37.1 µM
- TGI (COLO 205 colon): 30.3 µM
- TGI (HOP-18 NSCLC): 33.6 µM
- TGI (SW-620 colon): 26.3 µM
- TGI (MALME-3M melanoma): 38.7 µM
- TGI (DMS 114 small cell lung): 28.8 µM
- TGI (LOX IMVI melanoma): 29.6 µM
- TGI (SK-MEL-5 melanoma): 30.7 µM
- TGI (KM20L2 colon): 39.3 µM
- TGI (OVCAR-3 ovarian): 27 µM
- TGI (NCI-H23 lung): 32.8 µM
- TGI (XF 498 CNS): 27.4 µM
- TGI (HOP-62 NSCLC): 33.1 µM
- TGI (SF-295 CNS): 53.9 µM
- TGI (SF-268 CNS): 33 µM
- TGI (NCI-H226 lung): 44.7 µM
- TGI (SF-539 CNS): 33.2 µM
- TGI (SK-MEL-2 melanoma): 27.5 µM
- TGI (SK-MEL-28 melanoma): 41.4 µM
- TGI (SNB-78 CNS): 72.5 µM
- TGI (HCT-116 colon): 34.4 µM
- TGI (UACC-257 melanoma): 34.7 µM
- TGI (TK-10 renal): 32.5 µM
- TGI (LXFL 529 NSCLC): 29.9 µM
- TGI (SR leukemia): 44.1 µM
- TGI (NCI-H522 lung): 25.8 µM
- TGI (HOP-92 NSCLC): 30.5 µM
- TGI (EKVX NSCLC): 39.4 µM
- TGI (UACC-62 melanoma): 30.5 µM
- TGI (UO-31 renal): 30.8 µM
- TGI (SK-OV-3 ovarian): 31.7 µM
- TGI (CAKI-1 renal): 43.9 µM
- TGI (IGROV1 ovarian): 32.9 µM
- TGI (MOLT-4 leukemia): 39.3 µM
- TGI (SNB-19 CNS): 31 µM
- TGI (ACHN renal): 34.2 µM
- TGI (OVCAR-5 ovarian): > 100 µM
- TGI (RXF 393 renal): 32.9 µM
- TGI (SNB-75 CNS): 28.3 µM
- TGI (K-562 leukemia): 28.5 µM
- TGI (OVCAR-8 ovarian): 29.7 µM
- TGI (HCT-15 colon): 29 µM
- TGI (HT29 colon): 30.1 µM
- TGI (M14 melanoma): 30.5 µM
